For 2 compounds, EC (2-fold response), maximal fold induction and EC50 results are on record in US12612424B2, “HPK1 inhibitors and uses thereof” (Regor Pharmaceuticals, Inc., priority 2019, dated 2026).

This test concerns Human Pan T Cell (IL-2 release). In words: IL2 released by human pan T cell upon anti-CD3/anti-CD28 stimulation (ELISA). The test is classed as cell-based. Particulars: Homo sapiens, T-cell, human pan T cells; for maximal fold induction: response of IL-2 over DMSO control, anti-CD3/anti-CD28, 48 hours, ELISA, read-out: IL-2 Max Fold Response; for EC50: IL-2 response, calculated with GraphPad Prism. The procedure, abridged:
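Primary human pan-T cells, negatively isolated from PBMC, plated at 100,000 cells/well and stimulated with immobilized anti-CD3 plus soluble anti-CD28 in presence of test compound at varying concentrations. After 2 days, secreted IL-2 in supernatant quantified by ELISA.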

Each structure is given as a SMILES string.

What is called EC50 is the concentration that produces a half-maximal response. Take `COc1cc2c(cc1Nc1ncc(Cl)c(N3CC(C)(CC(=O)O)c4cc(F)ccc43)n1)CN(C)CC2` (centres unmarked) [Example 150, 2-(1-(5-Chloro-2-((6-methoxy-2-methyl-1,2,3,4-tetrahydroisoquinolin-7-yl)amino)pyrimidin-4-yl)-5-fluoro-3-methylindolin-3-yl)acetic acid]: the EC50 was at most 100 nM. For the same compound, the EC (2-fold response) (48 h, concentration of compound that gives 200% IL-2 response (2 folds) over DMSO control) was at most 0.1 µM. Moreover, the maximal fold induction (48 h) was above 2.
Consider `COc1cc2c(cc1Nc1ncc(Cl)c(N3CC(C)(CO)c4ccccc43)n1)CN(C)CC2` (centres unmarked) [Example 123], for which the half-maximal effective concentration (EC50) was 100 to 500 nM. Further, the maximal fold induction (48 h) is below 2.
